Values quoted from earlier work, collected in patent US20150209317A1, “Plant Extracts for Improving Cognitive Function” (Kemin Industries, Inc., priority 2014, published 2015).

Assays:
aging mice = conditions: RA administration to aging mice
[1] = subchronic administration (Park 2010)

For `O=C(/C=C/c1ccc(O)c(O)c1)O[C@H](Cc1ccc(O)c(O)c1)C(=O)O` [Rosmarinic acid], the “Catalase (CAT) activity in the brain” value (aging mice) is listed as “increased”, the “Malondialdehyde (MDA) in the brain” value (aging mice) is listed as “decreasing” and the “Superoxide dismutase (SOD) activity in the brain” value (aging mice) is listed as “increased”. For the same molecule, the “Memory in the Morris water maze spatial task” value [1] was “improved memory”.
